Data reported in paper PMC8476831, “Pharmacological Characterization of Toludesvenlafaxine as a Triple Reuptake Inhibitor” (Frontiers in Pharmacology, 2021).
Read-outs that look alike come from different tables or passages of the source. Marks after values point to notes of the source that are not given here.

What was measured:
CUMS rats = test: Chronic unpredictable mild stress (CUMS) model: open field test and sucrose consumption; conditions: 7.3 mg/kg oral once daily 21 days
Text: Briefly, SD rats were randomly exposed to various stressors for 3 weeks. […] No stressor was repeated within 2 days for each rat. The control group was housed in a separate room, with free access to food and water, and not disturbed.
Rats received oral administration of study drugs once daily for 21 consecutive days during the chronic stress exposure period. At the end of the chronic stress and drug treatment period, the open field test (21st day) and amount of sucrose consumption (22nd day) were determined.
(§1) Locomotor activity was measured in custom-made acrylic boxes (Height✕Width✕Length: 40✕52✕52 cm). The boxes were placed underneath cameras and all sessions (the duration of the sessions was 5 min) were recorded and data were later quantified by experimenters blinded to treatments. The bottom surface of the boxes was divided into 16 equal squares. Two parameters were quantified from the sessions: the number of squares each rat crossed with both front paws and the number of rearing episodes. Standing with two front paws off the ground was considered one episode of rearing.
(§2) Rats were exposed to 1% sucrose solution in leak-proof bottles for 1 h per day for 3 consecutive days. […] The weight difference of the bottles before and after the 2-h test was considered the total amount of sucrose consumed by the rats.

[1] = tested on: olfactory bulbectomized rats; test: Olfactory bulbectomized model: open field test, sucrose consumption, serum corticosterone and testosterone
Experimental: Thereafter, all rats received daily intragastric dosing for 20 days. The open field test on the 7th and 14th days of dosing, sucrose consumption on the 18th day of dosing, and serum levels of corticosterone and testosterone on the 20th day of dosing were determined.
as §1, §2
The serum corticosterone and testosterone levels were measured following the kit instructions.

[2] = Blood, brain and hypothalamus distribution after single intragastric dose; type: in vivo, Wistar rats; conditions: rats, toludesvenlafaxine 8 mg/kg intragastric
Experimental: Total brain and hypothalamus distribution study was conducted in Wistar rats (4/sex/group) following a single intragastric dose at 8 mg/kg. […] All tissues were immediately rinsed with 200 μg/ml dichlorovos (as esterase inhibitor) ice-cold saline after collection and then were stored at −80°C until analysis using LC-MS/MS.

striatum = tested on: striatum; design: method as in Zhang et al., 2014; conditions: ref Zhang et al., 2014; cited from earlier work
[3] = 7.3 mg/kg daily, 20th day of dosing
[4] = both sexes, Wistar, rat, blood, oral, read-out: Blood concentration
[5] = both sexes, Wistar, rat, brain, oral, read-out: Brain concentration
[6] = both sexes, Wistar, rat, hypothalamus, oral, read-out: Hypothalamus concentration

## CN(C)CC(c1ccc(O)cc1)C1(O)CCCCC1 (stereo not drawn) [DVS, desvenlafaxine succinate monohydrate]
CUMS rats; day 22
  Sugar consumption rate: 82.1 ± 7.4^d %
CUMS rats; open field day 21
  Numbers of squares crossed: 47.0 ± 12.1^e
  Rearing time: 15.2 ± 3.9^d seconds
[1]; 7.3 mg/kg daily intragastric
  Moving distance (squares crossed) Day 7: 26.8 ± 7.6 squares crossed
  Moving distance (squares crossed) Day 14: 26.7 ± 10.1 squares crossed
  Rearing time Day 7: 7.0 ± 3.1^d seconds
  Rearing time Day 14: 9.4 ± 3.1^d seconds
[1]; 7.3 mg/kg daily, 18th day of dosing
  Sugar consumption rate: 58.1 ± 26.6%
[1]; [3]
  Corticosterone (serum): 394.1 ± 231.6 ng/L
  Testosterone (serum): 2.4 ± 1.8 ng/mL

## CN(C)CC(c1ccc(O)cc1)C1(O)CCCCC1 (stereo not drawn) [ODV, O-desmethylvenlafaxine]
[2]; both sexes, Wistar, rat, blood, oral, 15 min row (footnote: detected at 20 min)
  concentration at 20 min: 90.9 ± 33.5 ng/mL
[2]; [4]
  concentration at 1 h: 68.2 ± 23.6 ng/mL
  concentration at 12 h: 2.84 ± 2.69 ng/mL
[2]; both sexes, Wistar, rat, brain, oral, 15 min, read-out: Brain concentration
  concentration at 15 min: 13.8 ± 8.4 ng/g
[2]; [5]
  concentration at 1 h: 20.9 ± 6.8 ng/g
  concentration at 12 h: 2.06 ± 1.29 ng/g
[2]; both sexes, Wistar, rat, hypothalamus, oral, 15 min, read-out: Hypothalamus concentration
  concentration at 15 min: 92.5 ng/g
[2]; [6]
  concentration at 1 h: 97.9 ± 58 ng/g
  concentration at 12 h: 7.22 ± 6.79 ng/g
[2]; 15 min
  Hypothalamus concentration: 92.52 ± 68.23 ng/g
striatum
  striatal DA level: does not increase
